From publication PMC11167047 (Cell Death Discovery, 2024)

Legend:
Experiment in all cases: kinome screen (33PanQinase)
Assay type in all cases: biochemical
IRAK1 = biological target: T1, IRAK1 (Homo sapiens, UniProt P51617)
T1 construct: purchased Reaction Biology Europe GmbH (formerly ProQinase)
Description: (§1) The Kinome Screening was performed by Reaction Biology Europe GmbH (http://reactionbiology.com; Freiburg i. Br., Germany).

AKT3 = biological target: T2, AKT3 (Homo sapiens, UniProt Q9Y243)
T2 construct: purchased Reaction Biology Europe GmbH (formerly ProQinase)
T2 sequence (Q9Y243 whole entry): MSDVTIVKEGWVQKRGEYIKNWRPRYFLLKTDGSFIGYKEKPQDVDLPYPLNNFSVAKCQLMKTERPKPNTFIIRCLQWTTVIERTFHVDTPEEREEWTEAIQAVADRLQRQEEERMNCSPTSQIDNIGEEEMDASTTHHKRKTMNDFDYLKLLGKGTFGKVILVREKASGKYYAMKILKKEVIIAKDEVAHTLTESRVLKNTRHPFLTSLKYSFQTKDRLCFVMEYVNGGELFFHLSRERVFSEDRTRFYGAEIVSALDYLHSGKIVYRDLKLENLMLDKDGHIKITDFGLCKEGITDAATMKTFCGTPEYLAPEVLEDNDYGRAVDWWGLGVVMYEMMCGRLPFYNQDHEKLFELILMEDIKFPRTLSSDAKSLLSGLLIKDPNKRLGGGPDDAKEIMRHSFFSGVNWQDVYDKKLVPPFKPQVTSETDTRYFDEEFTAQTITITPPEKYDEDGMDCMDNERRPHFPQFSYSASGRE
Description: as §1

TNK1 = biological target: T3, TNK1 (Homo sapiens, UniProt Q13470)
T3 construct: purchased Reaction Biology Europe GmbH (formerly ProQinase)
T3 sequence (Q13470 1-666): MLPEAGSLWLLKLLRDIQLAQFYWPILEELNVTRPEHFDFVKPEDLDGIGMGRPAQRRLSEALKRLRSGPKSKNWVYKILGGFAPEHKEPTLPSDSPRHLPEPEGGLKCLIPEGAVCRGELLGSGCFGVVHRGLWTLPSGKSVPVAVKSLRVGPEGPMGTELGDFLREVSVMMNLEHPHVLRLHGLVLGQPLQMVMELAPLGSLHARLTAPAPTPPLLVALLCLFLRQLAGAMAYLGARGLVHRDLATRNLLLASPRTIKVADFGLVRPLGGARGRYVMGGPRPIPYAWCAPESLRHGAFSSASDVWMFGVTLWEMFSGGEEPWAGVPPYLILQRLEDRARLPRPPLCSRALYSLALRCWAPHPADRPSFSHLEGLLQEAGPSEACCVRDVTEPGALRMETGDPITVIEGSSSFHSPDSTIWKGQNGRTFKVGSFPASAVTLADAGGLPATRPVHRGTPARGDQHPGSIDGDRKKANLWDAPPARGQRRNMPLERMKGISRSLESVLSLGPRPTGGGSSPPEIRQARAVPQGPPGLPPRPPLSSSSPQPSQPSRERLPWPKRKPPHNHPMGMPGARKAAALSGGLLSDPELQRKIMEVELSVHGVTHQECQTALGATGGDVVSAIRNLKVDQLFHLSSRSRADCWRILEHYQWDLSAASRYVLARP
Description: as §1

BMX = biological target: T4, BMX (Homo sapiens, UniProt P51813)
T4 construct: purchased Reaction Biology Europe GmbH (formerly ProQinase)
T4 sequence (P51813 1-675): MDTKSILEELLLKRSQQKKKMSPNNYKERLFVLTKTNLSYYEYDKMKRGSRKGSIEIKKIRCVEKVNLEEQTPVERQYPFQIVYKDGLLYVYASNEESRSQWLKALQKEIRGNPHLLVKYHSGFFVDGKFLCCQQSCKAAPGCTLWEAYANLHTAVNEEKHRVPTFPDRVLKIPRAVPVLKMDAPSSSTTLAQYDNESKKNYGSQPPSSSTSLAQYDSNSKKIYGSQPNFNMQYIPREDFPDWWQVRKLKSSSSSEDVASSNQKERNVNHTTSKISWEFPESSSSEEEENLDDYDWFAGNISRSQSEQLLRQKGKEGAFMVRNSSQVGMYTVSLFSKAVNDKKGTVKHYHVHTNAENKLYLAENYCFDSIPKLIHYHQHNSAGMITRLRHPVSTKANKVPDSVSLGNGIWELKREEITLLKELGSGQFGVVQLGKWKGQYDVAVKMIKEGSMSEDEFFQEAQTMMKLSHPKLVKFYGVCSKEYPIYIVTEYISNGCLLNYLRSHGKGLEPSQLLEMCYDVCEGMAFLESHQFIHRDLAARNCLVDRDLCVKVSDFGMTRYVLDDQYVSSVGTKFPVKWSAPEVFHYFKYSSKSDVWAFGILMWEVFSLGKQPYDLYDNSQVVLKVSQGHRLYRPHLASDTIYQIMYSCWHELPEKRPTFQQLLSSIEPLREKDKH
Description: as §1

MASTL = biological target: T5, MASTL (Homo sapiens, UniProt Q96GX5)
T5 construct: purchased Reaction Biology Europe GmbH (formerly ProQinase)
T5 sequence (Q96GX5 1-879): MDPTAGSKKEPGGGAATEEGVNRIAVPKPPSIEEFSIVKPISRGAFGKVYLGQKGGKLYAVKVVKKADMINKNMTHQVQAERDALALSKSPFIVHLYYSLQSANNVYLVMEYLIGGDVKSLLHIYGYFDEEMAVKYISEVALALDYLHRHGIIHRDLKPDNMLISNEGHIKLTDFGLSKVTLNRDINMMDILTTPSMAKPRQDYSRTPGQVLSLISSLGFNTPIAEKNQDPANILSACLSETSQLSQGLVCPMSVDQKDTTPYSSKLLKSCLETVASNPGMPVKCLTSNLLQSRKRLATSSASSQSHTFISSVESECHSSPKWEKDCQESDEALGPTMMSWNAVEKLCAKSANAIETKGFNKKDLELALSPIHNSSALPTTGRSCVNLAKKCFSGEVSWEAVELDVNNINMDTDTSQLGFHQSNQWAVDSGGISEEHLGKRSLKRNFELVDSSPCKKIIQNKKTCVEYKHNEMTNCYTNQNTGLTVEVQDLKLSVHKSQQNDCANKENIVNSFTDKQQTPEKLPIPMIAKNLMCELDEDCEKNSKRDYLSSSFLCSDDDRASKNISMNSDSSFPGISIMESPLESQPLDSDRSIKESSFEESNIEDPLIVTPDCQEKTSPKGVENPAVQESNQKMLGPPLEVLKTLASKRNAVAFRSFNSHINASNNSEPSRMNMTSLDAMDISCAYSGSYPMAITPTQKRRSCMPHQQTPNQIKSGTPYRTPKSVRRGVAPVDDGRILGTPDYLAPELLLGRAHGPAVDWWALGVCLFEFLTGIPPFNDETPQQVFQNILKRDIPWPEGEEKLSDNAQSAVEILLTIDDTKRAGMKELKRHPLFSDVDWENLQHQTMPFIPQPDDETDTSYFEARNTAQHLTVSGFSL
Description: as §1

CDK4/CycD2 = biological target: T6, CDK4/CycD2 (Homo sapiens, UniProt P11802)
T6 construct: purchased Reaction Biology Europe GmbH (formerly ProQinase)
T6 sequence (P11802 whole entry): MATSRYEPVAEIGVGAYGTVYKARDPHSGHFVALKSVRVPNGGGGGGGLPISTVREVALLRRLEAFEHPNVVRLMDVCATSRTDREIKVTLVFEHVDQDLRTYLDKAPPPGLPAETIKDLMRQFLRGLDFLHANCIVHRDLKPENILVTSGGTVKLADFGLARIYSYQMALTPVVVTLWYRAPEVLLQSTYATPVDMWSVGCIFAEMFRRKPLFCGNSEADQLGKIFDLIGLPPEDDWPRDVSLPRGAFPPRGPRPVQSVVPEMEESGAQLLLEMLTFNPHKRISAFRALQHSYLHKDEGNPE
T6 sequence (P30279 whole entry partner): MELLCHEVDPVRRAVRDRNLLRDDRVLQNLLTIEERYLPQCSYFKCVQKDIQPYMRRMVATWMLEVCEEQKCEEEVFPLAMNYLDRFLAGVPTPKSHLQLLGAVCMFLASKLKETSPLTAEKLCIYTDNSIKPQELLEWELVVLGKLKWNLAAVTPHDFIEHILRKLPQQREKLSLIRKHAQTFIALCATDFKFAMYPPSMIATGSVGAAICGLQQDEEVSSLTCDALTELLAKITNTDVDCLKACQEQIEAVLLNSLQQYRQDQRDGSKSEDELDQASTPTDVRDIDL
Description: as §1

MST4 = biological target: T7, MST4 (Homo sapiens, UniProt Q9P289)
T7 construct: purchased Reaction Biology Europe GmbH (formerly ProQinase)
T7 sequence (Q9P289 whole entry): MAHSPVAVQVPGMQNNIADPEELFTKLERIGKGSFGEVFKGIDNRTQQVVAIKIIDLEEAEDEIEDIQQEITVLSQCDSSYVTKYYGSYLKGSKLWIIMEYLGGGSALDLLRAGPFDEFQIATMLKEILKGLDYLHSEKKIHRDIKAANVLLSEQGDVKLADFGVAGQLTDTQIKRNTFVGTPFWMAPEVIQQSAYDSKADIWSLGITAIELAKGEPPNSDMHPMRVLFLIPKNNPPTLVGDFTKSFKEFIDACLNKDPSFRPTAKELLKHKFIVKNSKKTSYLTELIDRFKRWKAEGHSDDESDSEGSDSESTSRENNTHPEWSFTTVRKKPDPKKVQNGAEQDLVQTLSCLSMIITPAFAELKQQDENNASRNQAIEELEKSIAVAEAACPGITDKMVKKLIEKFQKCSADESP
Description: as §1

CDK3/CycE1 = biological target: T8, CDK3/CycE1 (Homo sapiens, UniProt Q00526)
T8 construct: purchased Reaction Biology Europe GmbH (formerly ProQinase)
T8 sequence (Q00526 whole entry): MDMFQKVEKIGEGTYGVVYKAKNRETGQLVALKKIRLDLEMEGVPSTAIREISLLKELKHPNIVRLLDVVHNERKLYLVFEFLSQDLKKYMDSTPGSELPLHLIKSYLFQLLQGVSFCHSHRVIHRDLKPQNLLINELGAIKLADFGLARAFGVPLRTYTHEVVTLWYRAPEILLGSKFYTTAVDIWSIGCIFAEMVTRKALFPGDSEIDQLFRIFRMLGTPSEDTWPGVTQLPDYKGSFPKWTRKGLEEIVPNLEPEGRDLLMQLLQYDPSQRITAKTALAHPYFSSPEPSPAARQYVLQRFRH
T8 sequence (P24864 whole entry partner): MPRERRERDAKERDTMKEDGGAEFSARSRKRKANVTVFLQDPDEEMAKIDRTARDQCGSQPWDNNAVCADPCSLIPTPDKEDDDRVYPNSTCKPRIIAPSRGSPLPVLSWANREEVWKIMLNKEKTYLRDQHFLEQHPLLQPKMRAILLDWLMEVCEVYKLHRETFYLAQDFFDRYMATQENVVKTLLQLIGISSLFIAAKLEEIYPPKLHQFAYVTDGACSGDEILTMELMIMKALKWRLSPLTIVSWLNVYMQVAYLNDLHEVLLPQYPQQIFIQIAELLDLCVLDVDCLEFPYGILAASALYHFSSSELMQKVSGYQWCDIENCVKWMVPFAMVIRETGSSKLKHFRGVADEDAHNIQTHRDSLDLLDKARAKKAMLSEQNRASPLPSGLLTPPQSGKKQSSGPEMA
Description: as §1

EIF2AK2 = biological target: T9, EIF2AK2 (Homo sapiens, UniProt P19525)
T9 construct: purchased Reaction Biology Europe GmbH (formerly ProQinase)
T9 sequence (P19525 whole entry): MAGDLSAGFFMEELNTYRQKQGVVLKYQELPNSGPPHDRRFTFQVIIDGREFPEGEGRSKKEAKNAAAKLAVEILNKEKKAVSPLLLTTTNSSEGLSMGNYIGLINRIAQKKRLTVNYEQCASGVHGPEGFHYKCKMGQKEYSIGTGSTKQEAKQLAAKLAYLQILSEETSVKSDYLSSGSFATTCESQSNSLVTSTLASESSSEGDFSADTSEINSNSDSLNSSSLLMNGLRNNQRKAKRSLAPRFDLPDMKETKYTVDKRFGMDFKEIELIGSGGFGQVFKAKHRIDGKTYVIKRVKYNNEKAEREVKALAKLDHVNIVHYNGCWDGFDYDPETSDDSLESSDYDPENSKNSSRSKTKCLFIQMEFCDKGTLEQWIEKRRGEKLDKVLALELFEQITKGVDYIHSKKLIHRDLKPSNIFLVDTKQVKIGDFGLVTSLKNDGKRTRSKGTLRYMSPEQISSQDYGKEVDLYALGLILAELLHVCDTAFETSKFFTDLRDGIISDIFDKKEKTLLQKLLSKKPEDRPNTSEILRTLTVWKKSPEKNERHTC
Description: as §1

T1 sequence (P51617 whole entry): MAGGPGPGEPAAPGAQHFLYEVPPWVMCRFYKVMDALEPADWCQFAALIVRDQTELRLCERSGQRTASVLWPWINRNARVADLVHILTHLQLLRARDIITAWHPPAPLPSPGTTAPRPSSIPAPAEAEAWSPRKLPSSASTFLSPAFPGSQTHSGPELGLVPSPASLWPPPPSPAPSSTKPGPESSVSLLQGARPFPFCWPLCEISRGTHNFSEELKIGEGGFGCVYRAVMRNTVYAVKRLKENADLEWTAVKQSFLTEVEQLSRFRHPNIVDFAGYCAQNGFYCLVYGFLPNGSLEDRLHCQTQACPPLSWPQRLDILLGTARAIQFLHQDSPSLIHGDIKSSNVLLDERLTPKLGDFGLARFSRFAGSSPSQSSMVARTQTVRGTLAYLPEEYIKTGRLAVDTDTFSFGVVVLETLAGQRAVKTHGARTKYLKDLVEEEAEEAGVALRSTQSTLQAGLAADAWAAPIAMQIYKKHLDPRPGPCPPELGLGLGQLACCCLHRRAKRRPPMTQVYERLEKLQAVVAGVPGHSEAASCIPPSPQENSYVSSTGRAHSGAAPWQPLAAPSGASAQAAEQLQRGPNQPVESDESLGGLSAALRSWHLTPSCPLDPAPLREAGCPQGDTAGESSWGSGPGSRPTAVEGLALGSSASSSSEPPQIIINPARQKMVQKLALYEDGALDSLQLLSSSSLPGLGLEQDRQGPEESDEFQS

SMILES | residual kinase activity (IRAK1; 0.3 µM) | residual kinase activity (AKT3; 0.3 µM) | residual kinase activity (TNK1; 0.3 µM) | residual kinase activity (BMX; 0.3 µM) | residual kinase activity (MASTL; 0.3 µM) | residual kinase activity (CDK4/CycD2; 0.3 µM) | residual kinase activity (MST4; 0.3 µM) | residual kinase activity (CDK3/CycE1; 0.3 µM) | residual kinase activity (EIF2AK2; 0.3 µM) | further results
COc1ccnc2[nH]cc(-c3cc(N)nc(N)c3)c12 [meriolin 16] | 76 % of control | 82 % of control | 39 % of control | 103 % of control | 56 % of control | 34 % of control | 81 % of control | 5 % of control | 95 % of control | residual kinase activity (IRAK1; 0.03 µM): 95 % of control; residual kinase activity (AKT3; 0.03 µM): 108 % of control; residual kinase activity (TNK1; 0.03 µM): 82 % of control; residual kinase activity (BMX; 0.03 µM): 118 % of control; residual kinase activity (MASTL; 0.03 µM): 87 % of control; residual kinase activity (CDK4/CycD2; 0.03 µM): 81 % of control; residual kinase activity (MST4; 0.03 µM): 78 % of control; residual kinase activity (CDK3/CycE1; 0.03 µM): 36 % of control; residual kinase activity (EIF2AK2; 0.03 µM): 83 % of control
c1ccc(CNc2cc(-c3c[nH]c4ncccc34)ccn2)cc1 [meriolin 36] | 49 % of control | 93 % of control | 29 % of control | 109 % of control | 64 % of control | 21 % of control | 52 % of control | 1 % of control | 79 % of control | residual kinase activity (IRAK1; 3 µM): 9 % of control; residual kinase activity (AKT3; 3 µM): 42 % of control; residual kinase activity (TNK1; 3 µM): 9 % of control; residual kinase activity (BMX; 3 µM): 49 % of control; residual kinase activity (MASTL; 3 µM): 26 % of control; residual kinase activity (CDK4/CycD2; 3 µM): 3 % of control; residual kinase activity (MST4; 3 µM): 12 % of control; residual kinase activity (CDK3/CycE1; 3 µM): -1 % of control; residual kinase activity (EIF2AK2; 3 µM): 63 % of control
